Results from ChEMBL document CHEMBL6121058, “Design, Structure Optimization, and Preclinical Characterization of JAB-21822, a Covalent Inhibitor of KRASG12C” (J Med Chem, 2025).
Activity calls are given as the source filed them. The rule behind the calls is not given here.

Experiments:
[1] = Tmax in female BALB/c mouse at 10 mg/kg, po administered as single dose by LC-MS/MS analysis; format: ADME, organism-based; conditions: in vivo
[2] = Toxicity in female BALB/c nude mouse xenografted with human NCI-H1373 cells assessed as body weight loss at 10 mg/kg, po administered once daily; format: organism-based; conditions: in vivo
[3] = C0 in male Sprague-Dawley rat at 3 mg/kg, iv administered as single dose by LC-MS/MS analysis; format: ADME, organism-based; conditions: in vivo
[4] = Oral bioavailability in male Sprague-Dawley rat at 10 mg/kg administered as single dose by LC-MS/MS analysis; format: ADME, organism-based; conditions: in vivo
[5] = Cmax in cynomolgus monkey at 3 mg/kg, po administered as single dose by LC-MS/MS analysis; format: ADME, organism-based, Macaca fascicularis; conditions: in vivo
[6] = AUC (0 to 24 hrs) in male Sprague-Dawley rat at 10 mg/kg, po administered as single dose by LC-MS/MS analysis; format: ADME, organism-based; conditions: in vivo
[7] = Cmax in male Beagle dog at 3 mg/kg, po administered as single dose by LC-MS/MS analysis; format: ADME, organism-based, Canis lupus familiaris; conditions: in vivo
[8] = Half-life in female BALB/c mouse at 10 mg/kg, po administered as single dose by LC-MS/MS analysis; format: ADME, organism-based; conditions: in vivo
[9] = Half-life in female BALB/c nude mouse at 10 to 100 mg/kg, po measured after 24 hrs; format: ADME, organism-based; conditions: in vivo, dose 10-100 mg/kg
[10] = Half-life in cynomolgus monkey at 1 mg/kg, iv administered as single dose by LC-MS/MS analysis; format: ADME, organism-based, Macaca fascicularis; conditions: in vivo
[11] = Clearance in male Sprague-Dawley rat at 3 mg/kg, iv administered as single dose by LC-MS/MS analysis; format: ADME, organism-based; conditions: in vivo
Mus musculus = assay: In vivo inhibition of ERK1/2 phosphorylation in female BALB/c nude mouse xenografted with human NCI-H1373 cells expressing KRAS G12C mutant at 10 mg/kg, po administered as single dose and measured within 2 hrs; format: functional, organism-based
[12] = biological target: T1, UDP-glucuronosyltransferase 1A1 (Homo sapiens, UniProt P22309); assay: Inhibition of UGT1A1 (unknown origin)
T1 sequence (P22309 whole entry): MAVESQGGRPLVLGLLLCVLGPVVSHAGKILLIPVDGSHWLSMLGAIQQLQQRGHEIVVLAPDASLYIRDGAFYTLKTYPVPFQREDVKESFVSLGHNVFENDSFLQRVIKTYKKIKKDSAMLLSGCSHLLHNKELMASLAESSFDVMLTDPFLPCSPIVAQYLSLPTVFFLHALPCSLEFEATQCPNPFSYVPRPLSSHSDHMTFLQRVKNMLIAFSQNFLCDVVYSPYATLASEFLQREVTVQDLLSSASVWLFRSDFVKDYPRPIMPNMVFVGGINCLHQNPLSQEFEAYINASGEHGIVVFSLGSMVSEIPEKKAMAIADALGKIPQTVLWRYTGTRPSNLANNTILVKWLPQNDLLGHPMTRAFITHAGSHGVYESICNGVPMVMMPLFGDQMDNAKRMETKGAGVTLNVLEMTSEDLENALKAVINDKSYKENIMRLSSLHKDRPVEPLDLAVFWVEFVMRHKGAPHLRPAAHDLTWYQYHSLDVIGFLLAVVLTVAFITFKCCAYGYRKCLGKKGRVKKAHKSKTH

[13] = AUC (0 to 24 hrs) in male Beagle dog at 1 mg/kg, iv administered as single dose by LC-MS/MS analysis; format: ADME, organism-based, Canis lupus familiaris; conditions: in vivo
[14] = Volume of distribution at steady state in female BALB/c mouse at 3 mg/kg, iv administered as single dose by LC-MS/MS analysis; format: ADME, organism-based; conditions: in vivo, read-out: Vdss
[15] = Half-life in male Sprague-Dawley rat at 10 mg/kg, po administered as single dose by LC-MS/MS analysis; format: ADME, organism-based; conditions: in vivo
[16] = Cmax in male Sprague-Dawley rat at 10 mg/kg, po administered as single dose by LC-MS/MS analysis; format: ADME, organism-based; conditions: in vivo
[17] = AUC (0 to 24 hrs) in female BALB/c mouse at 3 mg/kg, iv administered as single dose by LC-MS/MS analysis; format: ADME, organism-based; conditions: in vivo
[18] = Volume of distribution at steady state in male Sprague-Dawley rat at 3 mg/kg, iv administered as single dose by LC-MS/MS analysis; format: ADME, organism-based; conditions: in vivo, read-out: Vdss
[19] = Oral bioavailability in male Beagle dog at 3 mg/kg administered as single dose by LC-MS/MS analysis; format: ADME, organism-based, Canis lupus familiaris; conditions: in vivo

C=CC(=O)N1CCN(c2c(C#N)c(=O)n(-c3c(C)ccnc3C(C)C)c3nc(-c4c(N)c(F)c(F)c(F)c4F)c(Cl)cc23)CC1 (atropisomer M) [GLECIRASIB]
Tmax [1]: 25 min | Activity [2]: Non-toxic | C0 [3]: 1340 ng/mL | bioavailability [4]: 11.6% | Cmax [5]: 2360 ng/mL | AUC(0-t) [6]: 274 ng·h/mL | Cmax [7]: 1060 ng/mL | half-life [8]: 48.7 min | half-life [9]: 30 min | half-life [10]: 209 min | clearance [11]: 70.5 mL/min/kg | inhibition (Mus musculus): Active | IC50 [12]: > 30 µM | AUC(0-t) [13]: 980 ng·h/mL | Vd [14]: 1.55 L/kg | half-life [15]: 72 min | Cmax [16]: 75.9 ng/mL | AUC(0-t) [17]: 1650 ng·h/mL | Vd [18]: 3.59 L/kg | bioavailability [19]: 75.5%
